{
  "source": "patent US20090238808A1",
  "about": "“Process for the identification of novel enzyme interacting compounds” (priority 2005, published 2009)",
  "assay_in_all_cases": "Kinobeads elution with test compound, mouse brain lysate, MS",
  "format_in_all_cases": "binding",
  "conditions_in_all_cases": "kinase released from kinobeads by specific elution",
  "key": {"[1]": {"system": "BRAFps", "summary_of_the_method": "(§1)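 Competitive elution: mouse brain lysate bound to kinobeads, gentle wash, test compound 1.0 mM in elution buffer, 30 min, 4° C; solvent control 2% DMSO/DMF. Eluates → DTT reduction, iodoacetamide alkylation, SDS gel → MS identification.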"}, "[2]": {"biological_target": "T1, NEK9 (Mus musculus, UniProt Q8K1R7)", "T1 construct": "from tissue; host or cells: mouse brain", "T1 sequence (Q8K1R7 whole entry)": "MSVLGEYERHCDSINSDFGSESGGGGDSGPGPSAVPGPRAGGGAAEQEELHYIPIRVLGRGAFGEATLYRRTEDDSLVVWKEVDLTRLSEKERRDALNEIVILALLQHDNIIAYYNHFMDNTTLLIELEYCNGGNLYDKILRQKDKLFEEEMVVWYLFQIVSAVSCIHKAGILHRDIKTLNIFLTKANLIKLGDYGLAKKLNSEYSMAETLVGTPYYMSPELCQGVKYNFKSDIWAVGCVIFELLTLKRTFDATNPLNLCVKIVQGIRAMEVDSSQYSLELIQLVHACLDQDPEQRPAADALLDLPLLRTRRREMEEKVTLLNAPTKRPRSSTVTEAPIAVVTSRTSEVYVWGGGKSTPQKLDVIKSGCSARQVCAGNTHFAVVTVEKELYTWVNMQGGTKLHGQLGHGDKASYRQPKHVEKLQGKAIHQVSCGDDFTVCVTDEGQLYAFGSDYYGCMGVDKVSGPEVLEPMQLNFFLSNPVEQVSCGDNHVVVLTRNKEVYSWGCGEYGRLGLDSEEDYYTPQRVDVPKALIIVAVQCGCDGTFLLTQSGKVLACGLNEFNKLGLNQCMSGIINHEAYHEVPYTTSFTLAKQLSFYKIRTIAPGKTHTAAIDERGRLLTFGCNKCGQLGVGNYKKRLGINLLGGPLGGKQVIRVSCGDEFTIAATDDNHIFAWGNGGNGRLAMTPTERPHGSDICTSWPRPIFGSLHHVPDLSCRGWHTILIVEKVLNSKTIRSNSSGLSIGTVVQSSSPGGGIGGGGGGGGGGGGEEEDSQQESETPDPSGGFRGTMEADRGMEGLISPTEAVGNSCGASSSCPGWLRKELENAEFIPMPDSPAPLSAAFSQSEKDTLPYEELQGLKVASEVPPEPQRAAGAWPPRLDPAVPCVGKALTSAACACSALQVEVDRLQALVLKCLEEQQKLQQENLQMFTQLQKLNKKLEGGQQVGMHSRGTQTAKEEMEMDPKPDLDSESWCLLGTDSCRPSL", "summary_of_the_method": "as §1"}, "[3]": {"system": "LIMK1ps", "summary_of_the_method": "as §1"}, "[4]": {"biological_target": "AMPKa1 (Mus musculus, UniProt Q5EG47)", "sequence (Q5EG47 whole entry)": "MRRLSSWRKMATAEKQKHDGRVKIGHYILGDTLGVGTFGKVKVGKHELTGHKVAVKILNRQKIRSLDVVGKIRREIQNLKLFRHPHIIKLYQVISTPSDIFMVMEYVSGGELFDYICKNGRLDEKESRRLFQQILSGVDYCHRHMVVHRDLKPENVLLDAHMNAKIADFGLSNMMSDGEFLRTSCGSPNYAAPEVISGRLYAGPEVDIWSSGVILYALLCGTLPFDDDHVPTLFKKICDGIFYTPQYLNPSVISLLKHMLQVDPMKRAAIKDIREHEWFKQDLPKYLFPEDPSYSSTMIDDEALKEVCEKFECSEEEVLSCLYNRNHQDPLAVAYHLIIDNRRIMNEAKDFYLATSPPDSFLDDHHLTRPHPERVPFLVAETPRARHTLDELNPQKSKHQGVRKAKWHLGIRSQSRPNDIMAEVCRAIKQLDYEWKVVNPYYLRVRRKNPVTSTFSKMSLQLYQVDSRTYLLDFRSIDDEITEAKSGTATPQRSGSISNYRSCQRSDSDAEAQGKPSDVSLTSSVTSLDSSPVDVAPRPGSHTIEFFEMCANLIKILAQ", "sequence (Q9R078 2-270 partner limits assumed)": "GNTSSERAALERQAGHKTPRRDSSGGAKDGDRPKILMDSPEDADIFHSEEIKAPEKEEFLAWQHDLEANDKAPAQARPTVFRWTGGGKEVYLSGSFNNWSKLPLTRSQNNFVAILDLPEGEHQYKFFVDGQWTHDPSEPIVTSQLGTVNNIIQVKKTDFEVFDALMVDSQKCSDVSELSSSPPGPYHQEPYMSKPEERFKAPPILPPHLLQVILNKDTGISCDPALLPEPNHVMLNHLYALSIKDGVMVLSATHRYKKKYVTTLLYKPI", "sequence (O54950 whole entry partner)": "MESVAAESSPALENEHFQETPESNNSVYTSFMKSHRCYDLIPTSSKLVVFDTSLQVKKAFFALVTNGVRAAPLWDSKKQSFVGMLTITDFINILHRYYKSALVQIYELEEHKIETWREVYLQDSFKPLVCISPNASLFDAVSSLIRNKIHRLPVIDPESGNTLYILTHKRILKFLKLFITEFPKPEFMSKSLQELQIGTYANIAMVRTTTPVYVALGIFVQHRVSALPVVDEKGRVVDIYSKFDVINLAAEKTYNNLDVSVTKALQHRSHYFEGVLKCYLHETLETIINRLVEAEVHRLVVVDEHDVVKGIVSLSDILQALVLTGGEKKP", "summary_of_the_method": "as §1"}, "[5]": {"biological_target": "T2, TBK1 (Mus musculus, UniProt Q9WUN2)", "T2 construct": "from tissue; host or cells: mouse brain", "T2 sequence (Q9WUN2 whole entry)": "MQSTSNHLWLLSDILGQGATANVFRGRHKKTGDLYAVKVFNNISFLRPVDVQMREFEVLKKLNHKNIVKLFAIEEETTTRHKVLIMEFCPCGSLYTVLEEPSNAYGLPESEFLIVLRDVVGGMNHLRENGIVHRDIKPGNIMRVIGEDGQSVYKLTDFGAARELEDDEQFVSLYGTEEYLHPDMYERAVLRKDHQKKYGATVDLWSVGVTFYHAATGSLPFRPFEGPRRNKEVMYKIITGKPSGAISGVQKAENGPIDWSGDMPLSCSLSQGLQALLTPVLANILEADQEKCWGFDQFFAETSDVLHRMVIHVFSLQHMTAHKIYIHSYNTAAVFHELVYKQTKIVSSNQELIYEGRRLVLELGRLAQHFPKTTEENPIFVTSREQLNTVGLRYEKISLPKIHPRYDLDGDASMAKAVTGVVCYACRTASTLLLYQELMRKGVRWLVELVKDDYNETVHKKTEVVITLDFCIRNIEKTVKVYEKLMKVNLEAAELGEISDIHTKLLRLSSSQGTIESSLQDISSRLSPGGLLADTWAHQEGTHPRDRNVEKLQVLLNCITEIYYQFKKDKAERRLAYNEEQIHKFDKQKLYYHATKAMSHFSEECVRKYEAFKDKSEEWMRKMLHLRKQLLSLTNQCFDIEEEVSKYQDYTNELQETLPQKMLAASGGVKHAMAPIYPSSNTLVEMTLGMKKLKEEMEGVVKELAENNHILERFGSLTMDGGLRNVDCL", "summary_of_the_method": "as §1"}, "[6]": {"biological_target": "T3, PKCa (Mus musculus, UniProt P20444)", "T3 construct": "from tissue; host or cells: mouse brain", "summary_of_the_method": "as §1"}, "[7]": {"biological_target": "T4, PAK5 (Mus musculus, UniProt Q8C015)", "T4 construct": "from tissue; host or cells: mouse brain", "summary_of_the_method": "as §1"}, "[8]": {"biological_target": "T5, PKCg (Mus musculus, UniProt P63318)", "T5 construct": "from tissue; host or cells: mouse brain", "summary_of_the_method": "as §1"}, "[9]": {"biological_target": "ALK2 (Mus musculus, UniProt P37172)", "sequence (P37172 21-509)": "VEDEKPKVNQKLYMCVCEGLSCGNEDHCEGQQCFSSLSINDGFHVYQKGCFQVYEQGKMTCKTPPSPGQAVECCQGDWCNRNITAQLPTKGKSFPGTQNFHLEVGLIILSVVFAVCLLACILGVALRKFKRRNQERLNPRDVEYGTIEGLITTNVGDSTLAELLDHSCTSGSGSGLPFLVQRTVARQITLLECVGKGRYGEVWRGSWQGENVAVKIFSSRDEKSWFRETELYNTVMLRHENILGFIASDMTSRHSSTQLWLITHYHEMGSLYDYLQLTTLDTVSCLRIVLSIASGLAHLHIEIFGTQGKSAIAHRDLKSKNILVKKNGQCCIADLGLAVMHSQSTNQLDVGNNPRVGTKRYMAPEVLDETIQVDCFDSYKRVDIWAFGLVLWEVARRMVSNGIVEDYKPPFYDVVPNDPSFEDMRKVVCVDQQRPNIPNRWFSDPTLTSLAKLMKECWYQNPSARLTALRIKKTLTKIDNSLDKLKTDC", "summary_of_the_method": "as §1"}, "[10]": {"biological_target": "T6, LYN (Mus musculus, UniProt P25911)", "T6 construct": "from tissue; host or cells: mouse brain", "T6 sequence (P25911 whole entry)": "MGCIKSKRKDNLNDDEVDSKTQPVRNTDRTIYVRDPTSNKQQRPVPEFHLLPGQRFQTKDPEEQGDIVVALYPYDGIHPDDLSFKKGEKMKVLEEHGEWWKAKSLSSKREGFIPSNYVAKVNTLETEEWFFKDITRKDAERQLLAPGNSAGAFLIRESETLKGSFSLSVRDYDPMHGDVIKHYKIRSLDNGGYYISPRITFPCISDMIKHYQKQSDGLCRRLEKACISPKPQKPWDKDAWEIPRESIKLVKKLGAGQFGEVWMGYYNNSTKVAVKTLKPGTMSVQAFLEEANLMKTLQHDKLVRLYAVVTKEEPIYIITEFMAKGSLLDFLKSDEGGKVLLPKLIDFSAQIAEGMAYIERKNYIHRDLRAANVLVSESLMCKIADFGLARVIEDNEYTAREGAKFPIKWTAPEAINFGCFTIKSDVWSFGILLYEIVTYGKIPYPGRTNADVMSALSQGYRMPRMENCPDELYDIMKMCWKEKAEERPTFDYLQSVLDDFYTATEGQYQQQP", "summary_of_the_method": "as §1"}, "[11]": {"biological_target": "T7, QSK (Mus musculus, UniProt Q6P4S6)", "T7 construct": "from tissue; host or cells: mouse brain", "summary_of_the_method": "as §1"}},
  "data": [
    {"smiles": "Cn1c(=O)c(-c2c(Cl)cccc2Cl)cc2cnc(Nc3ccc(CN)cc3)cc21", "note": "[CZC7324]", "values": [
      {"measurement": "mass spectrometry score, BRAFps", "setting": "[1]", "value": 70},
      {"measurement": "number of identified peptides, BRAFps", "setting": "[1]", "value": 4}
    ]},
    {"smiles": "NCc1ccc(Nc2ncc(F)c(Nc3ccccc3)n2)cc1", "note": "[CZC00008004]", "values": [
      {"measurement": "mass spectrometry score, NEK9", "setting": "[2]", "value": 61},
      {"measurement": "number of identified peptides, NEK9", "setting": "[2]", "value": 2},
      {"measurement": "mass spectrometry score, LIMK1ps", "setting": "[3]", "value": 186},
      {"measurement": "number of identified peptides, LIMK1ps", "setting": "[3]", "value": 4},
      {"measurement": "mass spectrometry score, AMPKa1", "setting": "[4]", "value": 64},
      {"measurement": "number of identified peptides, AMPKa1", "setting": "[4]", "value": 2}
    ]},
    {"smiles": "CNC1CC2OC(C)(C1OC)n1c3ccccc3c3c4c(c5c6ccccc6n2c5c31)C(=O)NC4", "note": "(stereo not shown) [CZC9280]", "values": [
      {"measurement": "mass spectrometry score, TBK1", "setting": "[5]", "value": 48},
      {"measurement": "number of identified peptides, TBK1", "setting": "[5]", "value": 1},
      {"measurement": "mass spectrometry score, PKCa", "setting": "[6]", "value": 64},
      {"measurement": "number of identified peptides, PKCa", "setting": "[6]", "value": 1},
      {"measurement": "mass spectrometry score, PAK5", "setting": "[7]", "value": 64},
      {"measurement": "number of identified peptides, PAK5", "setting": "[7]", "value": 1},
      {"measurement": "mass spectrometry score, PKCg", "setting": "[8]", "value": 53},
      {"measurement": "number of identified peptides, PKCg", "setting": "[8]", "value": 1}
    ]},
    {"smiles": "CCCCCCCCCCCCOS(=O)(=O)[O-].[Na+]", "note": "[SDS]", "values": [
      {"measurement": "mass spectrometry score, ALK2", "setting": "[9]", "value": 65},
      {"measurement": "number of identified peptides, ALK2", "setting": "[9]", "value": 2},
      {"measurement": "mass spectrometry score, LYN", "setting": "[10]", "value": 134},
      {"measurement": "number of identified peptides, LYN", "setting": "[10]", "value": 6},
      {"measurement": "mass spectrometry score, QSK", "setting": "[11]", "value": 153},
      {"measurement": "number of identified peptides, QSK", "setting": "[11]", "value": 7}
    ]}
  ]
}
